Several values for one entry are separate records, joined by “and”; a condition that tells them apart may be missing. Equal entries are not always repeated.
Tests used:
[1] = cn = amount concentration of the nth substance listed, in mol/dm3; conditions: Drop volume
[2] = for surface tension liquid-gas: Drop volume; for mass density / speed of sound: 101.3 kPa, Liquid; for mass density: Vibrating tube method; for speed of sound: Frequency=3 MHz, Single path-length method

CCCCCCCCCCCCO[C@@H]1O[C@H](CO)[C@@H](O)[C@H](O)[C@H]1O [dodecyl beta.-D-glucopyranoside] + O
surface tension liquid-gas [mN/m], [1]
Conditions	310.15 K	323.15 K
c1 = 2.33e-05	52.97	52.98
c1 = 3.58e-05	46.13	46.38
c1 = 5.16e-05	41.28	41.5
c1 = 6.49e-05	38.47	38.5
c1 = 7.97e-05	35.61	–
c1 = 9.31e-05	34.42	35.04
c1 = 0.000106	33.04	33.77
c1 = 0.000123	31.7	32.19
c1 = 0.000131	31.19	31.35
c1 = 0.000146	29.75	29.99
c1 = 0.000162	30.12	29.72
c1 = 0.000169	29.25	28.68
c1 = 0.000177	29.51	28.83
c1 = 0.000187	29.14	28.4
c1 = 0.000198	29.09	28
c1 = 0.00021	29.52	28.11
c1 = 0.000216	29.36	28.07
c1 = 0.000227	29.03	28.56
c1 = 0.000241	29.02	28.29
c1 = 0.000258	29.1	27.87

O [water]
[2]
Conditions	mass density [kg/m3]	speed of sound [m/s]	surface tension liquid-gas
283.15 K	999.707	–	73.92 mN/m
285.65 K	999.444	1457.3	–
290.65 K	998.689	1474.7	–
295.65 K	997.658	1490	–
298.15 K	–	–	71.77 mN/m
300.65 K	996.376	1503.3	–
305.65 K	994.867	1514.9	–
310.15 K	–	–	70.13 mN/m and 69.93 mN/m
310.65 K	993.147	1524.7	–
313.15 K	–	1529	–
315.65 K	991.235	1533	–
318.15 K	–	1536.6	–
320.65 K	989.14	1539.8	–
323.15 K	988.029	–	68.15 mN/m and 67.79 mN/m

O [water] + CCCCCCCCCCCCO[C@@H]1O[C@H](CO)[C@@H](O)[C@H](O)[C@H]1O
[1], c2 = 0
Conditions	surface tension liquid-gas [mN/m]
310.15 K	69.93
323.15 K	67.79
